Measurements as given in ChEMBL document CHEMBL1151105, “Antitumor principles in mosses: the first isolation and identification of maytansinoids, including a novel 15-methoxyansamitocin P-3” (J Nat Prod, 1988).
The source made the active and inactive calls. The rule behind the calls is not given here.

Tested on: P388
Experiment: Cytotoxicity against mouse P388 cells after 48 hrs
Format: functional, cell-based

In the case of COc1cc2cc(c1Cl)N(C)C(=O)C[C@H](OC(=O)C(C)N(C)C(=O)C(C)C)[C@]1(C)O[C@H]1[C@H](C)[C@@H]1C[C@@](O)(NC(=O)O1)[C@H](OC)/C=C/C=C(\C)C2OC (some centres undefined), the Activity is reported as “Active”.

For COc1cc2cc(c1Cl)N(C)C(=O)C[C@H](OC(=O)C(C)C)[C@]1(C)O[C@H]1[C@H](C)[C@@H]1C[C@@](O)(NC(=O)O1)[C@H](OC)/C=C/C=C(\C)C2, the Activity was “Active”.

In the case of COc1cc2cc(c1Cl)N(C)C(=O)C[C@H](OC(=O)C(C)N(C)C(=O)C(C)C)[C@]1(C)O[C@H]1[C@H](C)[C@@H]1C[C@@](O)(NC(=O)O1)[C@H](OC)/C=C/C=C(\C)C2 (some centres undefined), the Activity is reported as “Active”.

COc1cc2cc(c1Cl)N(C)C(=O)C[C@H](OC(=O)C(C)C)[C@]1(C)O[C@H]1[C@H](C)[C@@H]1C[C@@](O)(NC(=O)O1)[C@H](OC)/C=C/C=C(\C)C2OC (some centres undefined) was tested, and the Activity was “Active”.
